Reference: PubChem BioAssay (NCI)
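The compound was tested at five concentrations on cells cultured in 96-well plates, with a 48-hour exposure period. GI50 marks 50% less growth. TGI marks complete inhibition of growth.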

What was measured:
Assay in all cases: NCI anticancer screen, dose series, 48 h
786-0 renal = tested on: 786-0 renal
A498 renal = tested on: A498 renal
A549 NSCLC = tested on: A549 NSCLC
ACHN renal = tested on: ACHN renal
BT-549 breast = tested on: BT-549 breast
CAKI-1 renal = tested on: CAKI-1 renal
CCRF-CEM leukemia = tested on: CCRF-CEM leukemia
COLO 205 colon = tested on: COLO 205 colon
DU-145 prostate = tested on: DU-145 prostate
EKVX NSCLC = tested on: EKVX NSCLC
HCC-2998 colon = tested on: HCC-2998 colon
HCT-116 colon = tested on: HCT-116 colon
HCT-15 colon = tested on: HCT-15 colon
HL-60(TB) leukemia = tested on: HL-60(TB) leukemia
HOP-62 NSCLC = tested on: HOP-62 NSCLC
HOP-92 NSCLC = tested on: HOP-92 NSCLC
HS 578T breast = tested on: HS 578T breast
HT29 colon = tested on: HT29 colon
IGROV1 ovarian = tested on: IGROV1 ovarian
K-562 leukemia = tested on: K-562 leukemia
KM12 colon = tested on: KM12 colon
LOX IMVI melanoma = tested on: LOX IMVI melanoma
M14 melanoma = tested on: M14 melanoma
MALME-3M melanoma = tested on: MALME-3M melanoma
MCF7 breast = tested on: MCF7 breast
MDA-MB-231 breast = tested on: MDA-MB-231 breast
MDA-MB-435 = tested on: MDA-MB-435
MOLT-4 leukemia = tested on: MOLT-4 leukemia
NCI-H226 lung = tested on: NCI-H226 lung
NCI-H23 lung = tested on: NCI-H23 lung
NCI-H460 lung = tested on: NCI-H460 lung
NCI-H522 lung = tested on: NCI-H522 lung
NCI/ADR-RES ovarian = tested on: NCI/ADR-RES ovarian
OVCAR-3 ovarian = tested on: OVCAR-3 ovarian
OVCAR-4 ovarian = tested on: OVCAR-4 ovarian
OVCAR-5 ovarian = tested on: OVCAR-5 ovarian
OVCAR-8 ovarian = tested on: OVCAR-8 ovarian
PC-3 prostate = tested on: PC-3 prostate
RPMI-8226 leukemia = tested on: RPMI-8226 leukemia
RXF 393 renal = tested on: RXF 393 renal
SF-268 CNS = tested on: SF-268 CNS
SF-295 CNS = tested on: SF-295 CNS
SF-539 CNS = tested on: SF-539 CNS
SK-MEL-2 melanoma = tested on: SK-MEL-2 melanoma
SK-MEL-28 melanoma = tested on: SK-MEL-28 melanoma
SK-MEL-5 melanoma = tested on: SK-MEL-5 melanoma
SK-OV-3 ovarian = tested on: SK-OV-3 ovarian
SN12C renal = tested on: SN12C renal
SNB-19 CNS = tested on: SNB-19 CNS
SNB-75 CNS = tested on: SNB-75 CNS
SR leukemia = tested on: SR leukemia
SW-620 colon = tested on: SW-620 colon
T-47D breast = tested on: T-47D breast
TK-10 renal = tested on: TK-10 renal
U251 CNS = tested on: U251 CNS
UACC-257 melanoma = tested on: UACC-257 melanoma
UACC-62 melanoma = tested on: UACC-62 melanoma
UO-31 renal = tested on: UO-31 renal

CS(=O)(=O)N(c1cc(-c2ccc3ncnc(Nc4ccc(F)c(Cl)c4)c3c2)cnc1Cl)S(C)(=O)=O
GI50 (786-0 renal): 1580 nM | TGI (786-0 renal): > 26400 nM | GI50 (A498 renal): 342 nM | TGI (A498 renal): 1560 nM | GI50 (A549 NSCLC): 1980 nM | TGI (A549 NSCLC): 11200 nM | GI50 (ACHN renal): 1110 nM | TGI (ACHN renal): 12400 nM | GI50 (BT-549 breast): 638 nM | TGI (BT-549 breast): 5060 nM | GI50 (CAKI-1 renal): 553 nM | TGI (CAKI-1 renal): 3980 nM | GI50 (CCRF-CEM leukemia): 527 nM | TGI (CCRF-CEM leukemia): > 100000 nM | GI50 (COLO 205 colon): 1320 nM | TGI (COLO 205 colon): 5930 nM | GI50 (DU-145 prostate): 1180 nM | TGI (DU-145 prostate): 24900 nM | GI50 (EKVX NSCLC): 649 nM | TGI (EKVX NSCLC): 5190 nM | GI50 (HCC-2998 colon): 1580 nM | TGI (HCC-2998 colon): 8430 nM | GI50 (HCT-116 colon): 1680 nM | TGI (HCT-116 colon): 6700 nM | GI50 (HCT-15 colon): 945 nM | TGI (HCT-15 colon): 13900 nM | GI50 (HL-60(TB) leukemia): 490 nM | TGI (HL-60(TB) leukemia): 5350 nM | GI50 (HOP-62 NSCLC): 957 nM | TGI (HOP-62 NSCLC): 14700 nM | GI50 (HOP-92 NSCLC): 191 nM | TGI (HOP-92 NSCLC): 1730 nM | GI50 (HS 578T breast): 218 nM | TGI (HS 578T breast): 2610 nM | GI50 (HT29 colon): 1070 nM | TGI (HT29 colon): 13900 nM | GI50 (IGROV1 ovarian): 196 nM | TGI (IGROV1 ovarian): 786 nM | GI50 (K-562 leukemia): 2450 nM | TGI (K-562 leukemia): > 100000 nM | GI50 (KM12 colon): 2430 nM | TGI (KM12 colon): 9810 nM | GI50 (LOX IMVI melanoma): 879 nM | TGI (LOX IMVI melanoma): 4730 nM | GI50 (M14 melanoma): 1170 nM | TGI (M14 melanoma): 11900 nM | GI50 (MALME-3M melanoma): 267 nM | TGI (MALME-3M melanoma): 2120 nM | GI50 (MCF7 breast): 246 nM | TGI (MCF7 breast): 3580 nM | GI50 (MDA-MB-231 breast): 1750 nM | TGI (MDA-MB-231 breast): 9650 nM | GI50 (MDA-MB-435): 1830 nM | TGI (MDA-MB-435): 17200 nM | GI50 (MOLT-4 leukemia): 1180 nM | TGI (MOLT-4 leukemia): 7740 nM | GI50 (NCI-H226 lung): 1900 nM | TGI (NCI-H226 lung): 24300 nM | GI50 (NCI-H23 lung): 861 nM | TGI (NCI-H23 lung): 5150 nM | GI50 (NCI-H460 lung): 1760 nM | TGI (NCI-H460 lung): 13500 nM | GI50 (NCI-H522 lung): 1570 nM | TGI (NCI-H522 lung): 11100 nM | GI50 (NCI/ADR-RES ovarian): 2540 nM | TGI (NCI/ADR-RES ovarian): 20900 nM | GI50 (OVCAR-3 ovarian): 728 nM | TGI (OVCAR-3 ovarian): 4240 nM | GI50 (OVCAR-4 ovarian): 2330 nM | TGI (OVCAR-4 ovarian): 19400 nM | GI50 (OVCAR-5 ovarian): 795 nM | TGI (OVCAR-5 ovarian): 10200 nM | GI50 (OVCAR-8 ovarian): 2170 nM | TGI (OVCAR-8 ovarian): 15500 nM | GI50 (PC-3 prostate): 1100 nM | TGI (PC-3 prostate): 7900 nM | GI50 (RPMI-8226 leukemia): 826 nM | TGI (RPMI-8226 leukemia): 3980 nM | GI50 (RXF 393 renal): 711 nM | TGI (RXF 393 renal): 3400 nM | GI50 (SF-268 CNS): 868 nM | TGI (SF-268 CNS): 7610 nM | GI50 (SF-295 CNS): 1250 nM | TGI (SF-295 CNS): 4920 nM | GI50 (SF-539 CNS): 1050 nM | TGI (SF-539 CNS): 4830 nM | GI50 (SK-MEL-2 melanoma): 1160 nM | TGI (SK-MEL-2 melanoma): 4010 nM | GI50 (SK-MEL-28 melanoma): 540 nM | TGI (SK-MEL-28 melanoma): 4930 nM | GI50 (SK-MEL-5 melanoma): 978 nM | TGI (SK-MEL-5 melanoma): 2420 nM | GI50 (SK-OV-3 ovarian): 600 nM | TGI (SK-OV-3 ovarian): 4310 nM | GI50 (SN12C renal): 964 nM | TGI (SN12C renal): > 32600 nM | GI50 (SNB-19 CNS): 897 nM | TGI (SNB-19 CNS): 9900 nM | GI50 (SNB-75 CNS): 73.9 nM | TGI (SNB-75 CNS): 698 nM | GI50 (SR leukemia): 4350 nM | TGI (SR leukemia): > 100000 nM | GI50 (SW-620 colon): 1710 nM | TGI (SW-620 colon): > 38400 nM | GI50 (T-47D breast): 130 nM | TGI (T-47D breast): 1800 nM | GI50 (TK-10 renal): 440 nM | TGI (TK-10 renal): 3730 nM | GI50 (U251 CNS): 1150 nM | TGI (U251 CNS): 13400 nM | GI50 (UACC-257 melanoma): 1110 nM | TGI (UACC-257 melanoma): 14500 nM | GI50 (UACC-62 melanoma): 490 nM | TGI (UACC-62 melanoma): 2930 nM | GI50 (UO-31 renal): 270 nM | TGI (UO-31 renal): 2990 nM
